Assay results reported in article PMC6150201, “Synthesis and Antitumor Activity of Novel Arylpiperazine Derivatives Containing the Saccharin Moiety” (Molecules : A Journal of Synthetic Chemistry and Natural …, 2017).

How the values were obtained:
DU145 cells = test: In vitro cytotoxicity, CCK-8 assay, DU145 cells; type: cell-based, human; settings: for IC50: androgen-insensitive human prostate cancer cell line, CCK-8, 24 h exposure, mean ± SD of three experiments; for selective activity for DU145 cells over other cancer cells: in words, from IC50 comparison
Method: (§1) The synthesized target compounds 4–21 were evaluated for their in vitro cytotoxic activities against three human prostate cancer cell lines (PC-3, LNCaP, and DU145) and compared with their effects on the human prostate epithelial cell line WPMY-1 by CCK-8 assay.
(§2) PC-3 and WPMY-1 cells were cultured in Dulbecco’s modified Eagle’s medium (DMEM, Invitrogen, Carlsbad, CA, USA) supplemented with 10% fetal bovine serum (FBS, Hyclone, Logan, UT, USA), 100 U/mL penicillin, and 0.1 mg/mL streptomycin (Invitrogen). DU145 cells were cultured in RPMI1640 media supplemented with 10% fetal bovine serum (FBS, Hyclone), 100 U/mL penicillin, and 0.1 mg/mL streptomycin (Invitrogen). LNCaP cells were cultured in F12 media supplemented with 10% fetal bovine serum (FBS, Hyclone), 100 U/mL penicillin, and 0.1 mg/mL streptomycin (Invitrogen). The cells were incubated at 37 °C in a humidified atmosphere with 5% CO2.
(§3) Cell proliferation was measured with the Cell Counting Kit-8 (CCK-8) assay kit (Dojindo Corp., Kumamoto, Japan). Cells were harvested during their logarithmic growth phase, seeded in 96-well plates at a density of 1 × 10^5 cells/mL, and cultured at 37 °C in a humidified incubator (5% CO2) for 24 h, followed by exposure to various concentrations of compounds tested for 24 h. Subsequently, 10 μL of CCK-8 (Dojindo) was added to each well, and the cells were then incubated for an additional 1 h at 37 °C to convert WST-8 into formazan. Cell growth inhibition was determined by measuring the absorbance (Abs) at λ = 450 nm using a microplate reader. Three independent experiments were performed. Cell growth inhibition was calculated according to the following equation: Growth inhibition = (1 − OD of treated cells / OD of control cells) × 100%
(§4) The half maximal inhibitory concentrations (IC50) were obtained from a linear regression analysis of the concentration-response curves plotted for each tested compound.

WPMY-1 cells = test: In vitro cytotoxicity, CCK-8 assay, WPMY-1 prostate epithelial cells; type: cell-based, human; settings: for IC50: WPMY-1, human prostate epithelial cell line, CCK-8, 24 h exposure, mean ± SD of three experiments
Method: as §1, §2, §3, §4

LNCaP cells = test: In vitro cytotoxicity, CCK-8 assay, LNCaP cells; type: cell-based, human; settings: for IC50: LNCaP, androgen-sensitive human prostate cancer cell line, CCK-8, 24 h exposure, mean ± SD of three experiments; for selective activity for LNCaP cells over other cancer cells: from IC50 comparison
Method: as §1, §2, §3, §4

PC-3 cells = test: In vitro cytotoxicity, CCK-8 assay, PC-3 cells; type: cell-based, human; settings: for IC50: PC-3, androgen-insensitive human prostate cancer cell line, CCK-8, 24 h exposure, mean ± SD of three experiments; for selective activity for PC-3 cells over other cancer cells: from IC50 comparison
Method: as §1, §2, §3, §4

Structure (SMILES) | IC50 (DU145 cells; Homo sapiens, DU-145, 24 h) [µM] | IC50 (DU145 cells) [µM] | selective activity for DU145 cells over other cancer cells (DU145 cells) | IC50 (WPMY-1 cells) [µM] | IC50 (LNCaP cells) [µM] | melting point [°C] | IC50 (PC-3 cells) [µM] | selective activity for PC-3 cells over other cancer cells (PC-3 cells; in words) | cytotoxic effects on human epithelial prostate normal cells WPMY-1 (in words) (WPMY-1 cells) | selective activity for LNCaP cells over other cancer cells (LNCaP cells; in words) | cytotoxic activity for LNCaP cells (in words) (LNCaP cells; in words) | cytotoxic activity for PC-3 cells (in words) (PC-3 cells; in words)
O=C1c2ccccc2S(=O)(=O)N1Cc1ccc(CCN2CCN(c3ccccc3)CC2)cc1 [Compound 4, Saccharin N-(1-(4-(methyl)phenethyl)-4-phenylpiperazine)] | < 2 | 1.28 ± 0.04 | excellent selective activity | > 50 | > 50 | 147 to 148 | > 50 | – | – | – | – | –
O=C1c2ccccc2S(=O)(=O)N1Cc1ccc(CCN2CCN(c3ccccn3)CC2)cc1 [Compound 5, Saccharin N-(1-(4-(methyl)phenethyl)-4-(pyridin-2-yl)piperazine)] | 3.57 ± 0.08 | – | excellent selective activity | > 50 | > 50 | 149 to 150 | > 50 | – | – | – | – | –
O=C1c2ccccc2S(=O)(=O)N1Cc1ccc(CCN2CCN(c3ncccn3)CC2)cc1 [Compound 6, Saccharin N-(2-(4-(4-(methyl)phenethyl)piperazin-1-yl)pyrimidine)] | > 50 | – | – | 48.3 ± 0.56 | > 50 | 153 to 154 | 4.84 ± 0.17 | excellent selective activity | – | – | – | –
Cc1cccc(N2CCN(CCc3ccc(CN4C(=O)c5ccccc5S4(=O)=O)cc3)CC2)c1 [Compound 7, Saccharin N-(1-(4-(methyl)phenethyl)-4-m-tolylpiperazine)] | 3.65 ± 0.1 | – | excellent selective activity | > 50 | > 50 | 126 to 127 | > 50 | – | – | – | – | –
Cc1ccc(N2CCN(CCc3ccc(CN4C(=O)c5ccccc5S4(=O)=O)cc3)CC2)cc1 [Compound 8, Saccharin N-(1-(4-(methyl)phenethyl)-4-p-tolylpiperazine)] | > 50 | – | – | – | > 50 | 130 to 131 | > 50 | – | – | – | – | –
COc1cccc(N2CCN(CCc3ccc(CN4C(=O)c5ccccc5S4(=O)=O)cc3)CC2)c1 [Compound 9, Saccharin N-(1-(4-(methyl)phenethyl)-4-(3-methoxyphenyl)piperazine)] | > 50 | – | – | > 50 | > 50 | 134 to 135 | 5.43 ± 0.18 | excellent selective activity | – | – | – | –
COc1ccc(N2CCN(CCc3ccc(CN4C(=O)c5ccccc5S4(=O)=O)cc3)CC2)cc1 [Compound 10, Saccharin N-(1-(4-(methyl)phenethyl)-4-(4-methoxyphenyl)piperazine)] | 2.28 ± 0.05 | – | – | > 50 | > 50 | 149 to 150 | 4.38 ± 0.13 | – | – | – | – | –
O=C1c2ccccc2S(=O)(=O)N1Cc1ccc(CCN2CCN(c3ccccc3F)CC2)cc1 [Compound 11, Saccharin N-(1-(4-(methyl)phenethyl)-4-(2-fluorophenyl)piperazine)] | > 50 | – | – | > 50 | 47.5 ± 2.17 | 137 to 138 | > 50 | – | – | – | – | –
O=C1c2ccccc2S(=O)(=O)N1Cc1ccc(CCN2CCN(c3ccc(F)cc3)CC2)cc1 [Compound 12, Saccharin N-(1-(4-(methyl)phenethyl)-4-(4-fluorophenyl)piperazine)] | < 2 | 1.14 ± 0.1 | excellent selective activity | > 50 | > 50 | 152 to 153 | > 50 | – | weak cytotoxic effects | – | – | –
O=C1c2ccccc2S(=O)(=O)N1Cc1ccc(CCN2CCN(c3ccc(F)cc3F)CC2)cc1 [Compound 13, Saccharin N-(1-(4-(methyl)phenethyl)-4-(2,4-difluorophenyl)piperazine)] | > 50 | – | – | > 50 | 5.03 ± 0.13 | 113 to 114 | > 50 | – | – | excellent selective activity | – | –
O=C1c2ccccc2S(=O)(=O)N1Cc1ccc(CCN2CCN(c3ccccc3Cl)CC2)cc1 [Compound 14, Saccharin N-(1-(4-(methyl)phenethyl)-4-(2-chlorophenyl)piperazine)] | 3.39 ± 0.11 | – | excellent selective activity | – | > 50 | 135 to 136 | 14.6 ± 1.12 | – | – | – | – | –
O=C1c2ccccc2S(=O)(=O)N1Cc1ccc(CCN2CCN(c3cccc(Cl)c3)CC2)cc1 [Compound 15, Saccharin N-(1-(4-(methyl)phenethyl)-4-(3-chlorophenyl)piperazine)] | > 50 | – | – | > 50 | 3.43 ± 0.16 | 143 to 144 | 2.74 ± 0.11 | – | – | – | – | –
O=C1c2ccccc2S(=O)(=O)N1Cc1ccc(CCN2CCN(c3ccc(Cl)cc3)CC2)cc1 [Compound 16] | > 50 | – | – | – | > 50 | 158 to 159 | > 50 | – | – | – | weak cytotoxic activity | weak cytotoxic activity
O=C1c2ccccc2S(=O)(=O)N1Cc1ccc(CCN2CCN(c3cccc(Cl)c3Cl)CC2)cc1 [Compound 17, Saccharin N-(1-(4-(methyl)phenethyl)-4-(2,3-dichlorophenyl)piperazine)] | > 50 | – | – | > 50 | 4.08 ± 0.15 | 178 to 179 | > 50 | – | weak cytotoxic effects | excellent selective activity | – | –
O=C1c2ccccc2S(=O)(=O)N1Cc1ccc(CCN2CCN(c3ccc(C(F)(F)F)cc3)CC2)cc1 [Compound 21, Saccharin N-(1-(4-(methyl)phenethyl)-4-(4-(trifluoromethyl)phenyl)piperazine)] | > 50 | – | – | – | > 50 | 108 to 109 | 3.73 ± 0.08 | excellent selective activity | – | – | – | –
COc1ccccc1N1CCN(CC(O)COc2cccc3ccccc23)CC1 (stereo not shown) [Naftopidil, reference compound] | 34.58 ± 0.31 | – | – | > 50 | 22.4 ± 0.61 | – | 42.1 ± 0.79 | – | – | – | – | –
